According to BindingDB's records for PubMed 34705450 (Astex Pharmaceuticals, 2021):

Molecular target: T1, Nuclear factor erythroid 2-related factor 2 (Homo sapiens, UniProt Q16236)
T1 sequence (Q16236 whole entry): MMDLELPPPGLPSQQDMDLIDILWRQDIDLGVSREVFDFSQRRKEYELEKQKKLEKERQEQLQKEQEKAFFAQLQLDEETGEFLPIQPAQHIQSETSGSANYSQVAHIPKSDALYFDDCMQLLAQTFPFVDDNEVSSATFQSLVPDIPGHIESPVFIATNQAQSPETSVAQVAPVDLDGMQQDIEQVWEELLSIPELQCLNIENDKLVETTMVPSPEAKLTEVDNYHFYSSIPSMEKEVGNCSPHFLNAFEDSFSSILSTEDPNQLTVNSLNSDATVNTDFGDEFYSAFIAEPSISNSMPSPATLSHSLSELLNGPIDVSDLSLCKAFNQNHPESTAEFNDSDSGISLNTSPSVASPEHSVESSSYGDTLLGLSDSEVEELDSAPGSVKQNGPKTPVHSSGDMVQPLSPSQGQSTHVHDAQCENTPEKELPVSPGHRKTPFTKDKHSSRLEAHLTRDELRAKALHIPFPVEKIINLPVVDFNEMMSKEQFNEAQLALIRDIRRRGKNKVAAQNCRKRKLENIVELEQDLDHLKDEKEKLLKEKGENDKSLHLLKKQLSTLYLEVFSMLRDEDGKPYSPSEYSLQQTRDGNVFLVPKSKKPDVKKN
Experiment: Induction of Nrf2 in human BEAS-2B cells assessed as increase in NQO1 protein level incubated for 48 hrs by MTT assay

Question: With `CN(C)C(=O)c1cccc(-c2cccc(-n3ncc(C(=O)O)c3C3CC3)c2)c1` as the compound, how does the EC50 read?
Answer: Its EC50 is 1400 nM.

Question: `CN(C)C(=O)c1cccc(-c2cccc(-n3ncc(C(=O)O)c3C3CC3)c2)c1F` was tested. Which EC50 did it give?
Answer: Its EC50 is 1300 nM.

Question: With `O=C(O)c1cnn(-c2cccc(-c3cccc(C(=O)N4CCCCC4)c3F)c2)c1C1CC1` as the compound, how does the EC50 read?
Answer: Its EC50 is 2300 nM.

Question: Which EC50 does the source give for `CCC[C@H]1CCCCN1C(=O)c1cccc(-c2cccc(-n3ncc(C(=O)O)c3C3CC3)c2)c1F` here?
Answer: The EC50 was 3500 nM.

Question: Which EC50 does the source give for `CN(C)C(=O)[C@H]1CCC[C@@H](c2cccc(-n3ncc(C(=O)O)c3C3CC3)c2)C1` here?
Answer: Its EC50 is 1700 nM.

Question: With `O=C(O)c1cnn(-c2cccc([C@@H]3CCC[C@H](C(=O)N4CCCCC4)C3)c2)c1C1CC1` as the compound, how does the EC50 read?
Answer: Its EC50 is 2700 nM.

Question: With `CCCC1CCCCN1C(=O)C1CCCC(c2cccc(-n3ncc(C(=O)O)c3C3CC3)c2)C1` (stereo unspecified) as the compound, how does the EC50 read?
Answer: The EC50 was 4100 nM.

Question: Which EC50 does the source give for `CCCC1CCCCN1C(=O)c1cccc(-c2cccc(-n3ncc(C(=O)O)c3C3CC3c3cccnc3)c2)c1` (stereo unspecified) here?
Answer: Its EC50 is 3200 nM.

Question: Which EC50 does the source give for `CN(CC1CC1)C(=O)c1cccc(-c2cccc(-n3ncc(C(=O)O)c3C3CC3)c2)c1F` here?
Answer: The EC50 was 2200 nM.

Question: `CCCC1CCCCN1C(=O)c1cccc(-c2cccc(-n3ncc(C(=O)O)c3C3CC3c3ccccn3)c2)c1` (stereo unspecified) was tested. Which EC50 did it give?
Answer: Its EC50 is 3800 nM.

Question: Which EC50 does the source give for `O=C(O)c1cnn(-c2cccc(-c3cccc(C(=O)N(CC4CC4)CC4CC4)c3F)c2)c1C1CC1` here?
Answer: The EC50 was 3500 nM.

Question: Which EC50 does the source give for `CCC[C@@H]1CCCCN1C(=O)c1cccc(-c2cccc(-n3ncc(C(=O)O)c3C3CC3)c2)c1F` here?
Answer: The EC50 was 3500 nM.

Question: For `CCCC1COCCN1C(=O)c1cccc(-c2cccc(-n3ncc(C(=O)O)c3C3CC3)c2)c1F` (stereo unspecified), which EC50 is on record?
Answer: The EC50 was 2500 nM.

Question: With `O=C(O)c1cnn(-c2cccc(-c3cccc(C(=O)N4CCCC5(CCCC5)C4)c3F)c2)c1C1CC1` as the compound, how does the EC50 read?
Answer: Its EC50 is 3700 nM.

Question: For `CCCCC1CCCN1C(=O)C1CCCC(c2cccc(-n3ncc(C(=O)O)c3C3CC3)c2)C1` (stereo unspecified), which EC50 is on record?
Answer: Its EC50 is 4400 nM.

Question: Which EC50 does the source give for `CCCC[C@@H]1CCCN1C(=O)[C@H]1CCC[C@@H](c2cccc(-n3ncc(C(=O)O)c3C3CC3)c2)C1` here?
Answer: The EC50 was 4300 nM.

Question: How did the EC50 turn out when `CCCC1CCCCN1C(=O)c1cccc(-c2cccc(-n3ncc(C(=O)O)c3C3CC3c3cccnn3)c2)c1` (stereo unspecified) was run?
Answer: The EC50 was 2800 nM.

Question: `CCCC1CCCCN1C(=O)c1cccc(-c2cccc(-n3ncc(C(=O)O)c3C3CC3c3cn(C)nn3)c2)c1` (stereo unspecified) was tested. Which EC50 did it give?
Answer: Its EC50 is 120 nM.

Question: For `CCC[C@@H]1CCCCN1C(=O)c1cccc(-c2cccc(-n3ncc(C(=O)O)c3[C@@H]3C[C@H]3c3cn(C)nn3)c2)c1`, which EC50 is on record?
Answer: The EC50 was > 5000 nM.

Question: `CCC[C@@H]1CCCCN1C(=O)c1cccc(-c2cccc(-n3ncc(C(=O)O)c3[C@H]3C[C@@H]3c3cn(C)nn3)c2)c1` was tested. Which EC50 did it give?
Answer: The EC50 was 43 nM.

Molecular target: Kelch-like ECH-associated protein 1 (Homo sapiens, UniProt Q14145)
Sequence (Q14145 whole entry): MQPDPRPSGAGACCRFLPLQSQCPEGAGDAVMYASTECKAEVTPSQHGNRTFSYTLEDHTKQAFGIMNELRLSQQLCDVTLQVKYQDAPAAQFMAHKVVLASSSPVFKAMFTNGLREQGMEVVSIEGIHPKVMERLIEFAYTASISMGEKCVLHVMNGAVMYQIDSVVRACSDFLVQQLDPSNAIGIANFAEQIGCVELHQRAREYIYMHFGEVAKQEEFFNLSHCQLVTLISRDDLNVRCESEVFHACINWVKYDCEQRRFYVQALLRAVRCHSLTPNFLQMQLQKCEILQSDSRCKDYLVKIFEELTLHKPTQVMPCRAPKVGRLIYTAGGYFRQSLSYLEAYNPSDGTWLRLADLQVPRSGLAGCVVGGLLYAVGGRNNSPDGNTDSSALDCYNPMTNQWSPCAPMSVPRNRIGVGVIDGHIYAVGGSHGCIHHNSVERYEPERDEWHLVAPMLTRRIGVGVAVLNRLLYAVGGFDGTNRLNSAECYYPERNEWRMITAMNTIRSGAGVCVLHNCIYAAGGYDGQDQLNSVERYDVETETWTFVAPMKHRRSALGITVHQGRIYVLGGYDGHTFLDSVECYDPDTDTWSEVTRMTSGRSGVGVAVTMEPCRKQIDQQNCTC

Question: `CCCC1CCCCN1C(=O)c1cccc(-c2cccc(-n3ncc(C(=O)O)c3C3CC3c3ccccn3)c2)c1` (stereo unspecified) was tested. Which IC50 did it give?
Answer: The IC50 was 42 nM.
